Data reported in patent publication US11739098B2 (BRISTOL-MYERS SQUIBB COMPANY, priority 2017, dated 2023).

Legend:
Type in all cases: cell-based
human TLR7 = target: T1, human TLR7 (Homo sapiens, UniProt Q9NYK1); experiment: TLR7 inhibition reporter assay (HEK-Blue cells, SEAP reporter, gardiquimod stimulation); conditions: HEK-Blue cells overexpressing human TLR7, SEAP reporter, gardiquimod 7.5 μM
T1 construct: host or cells: HEK-Blue cells (HEK293-derived reporter line)
T1 sequence (Q9NYK1 27-1049): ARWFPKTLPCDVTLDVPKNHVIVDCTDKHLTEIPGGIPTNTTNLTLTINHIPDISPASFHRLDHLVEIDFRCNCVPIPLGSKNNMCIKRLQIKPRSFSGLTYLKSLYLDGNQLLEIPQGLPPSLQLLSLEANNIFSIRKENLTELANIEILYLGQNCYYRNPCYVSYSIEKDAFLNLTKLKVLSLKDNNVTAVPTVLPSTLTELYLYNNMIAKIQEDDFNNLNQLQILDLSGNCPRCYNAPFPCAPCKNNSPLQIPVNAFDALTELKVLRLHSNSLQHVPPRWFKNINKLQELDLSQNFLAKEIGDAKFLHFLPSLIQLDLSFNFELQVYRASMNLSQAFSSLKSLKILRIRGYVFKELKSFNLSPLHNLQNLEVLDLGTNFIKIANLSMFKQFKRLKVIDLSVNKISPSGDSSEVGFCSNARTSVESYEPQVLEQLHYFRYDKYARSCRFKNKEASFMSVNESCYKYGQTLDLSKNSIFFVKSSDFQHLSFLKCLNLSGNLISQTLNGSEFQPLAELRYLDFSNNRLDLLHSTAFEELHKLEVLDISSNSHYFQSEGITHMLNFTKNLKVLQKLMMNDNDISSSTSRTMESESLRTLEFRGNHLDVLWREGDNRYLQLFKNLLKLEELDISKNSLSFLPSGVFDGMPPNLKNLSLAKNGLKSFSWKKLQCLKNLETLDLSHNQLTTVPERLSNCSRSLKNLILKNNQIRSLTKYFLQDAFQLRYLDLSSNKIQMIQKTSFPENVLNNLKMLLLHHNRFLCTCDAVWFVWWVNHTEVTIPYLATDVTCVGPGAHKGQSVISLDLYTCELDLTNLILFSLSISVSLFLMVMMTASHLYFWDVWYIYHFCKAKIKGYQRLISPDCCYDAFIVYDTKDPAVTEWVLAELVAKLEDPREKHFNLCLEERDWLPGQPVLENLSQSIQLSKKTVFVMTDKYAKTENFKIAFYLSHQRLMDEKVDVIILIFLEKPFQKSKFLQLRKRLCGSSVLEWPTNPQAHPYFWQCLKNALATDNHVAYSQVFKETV
Summary of the method: (§1)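 HEK-Blue cells overexpressing the receptor, with NF-κB/AP-1-driven SEAP, were pre-treated 30 min at room temperature with compound (0.05 nM–50 μM), then stimulated with gardiquimod 7.5 μM (TLR7), R848 15.9 μM (TLR8) or ODN2006 5 nM (TLR9). SEAP was read after 22 h at 37 °C as percent inhibition.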

human TLR8 = target: T2, human TLR8 (Homo sapiens, UniProt Q9NR97); experiment: TLR8 inhibition reporter assay (HEK-Blue cells, SEAP reporter, R848 stimulation); conditions: HEK-Blue cells overexpressing human TLR8, SEAP reporter, R848 15.9 μM
T2 construct: host or cells: HEK-Blue cells (HEK293-derived reporter line)
T2 sequence (Q9NR97 27-1041): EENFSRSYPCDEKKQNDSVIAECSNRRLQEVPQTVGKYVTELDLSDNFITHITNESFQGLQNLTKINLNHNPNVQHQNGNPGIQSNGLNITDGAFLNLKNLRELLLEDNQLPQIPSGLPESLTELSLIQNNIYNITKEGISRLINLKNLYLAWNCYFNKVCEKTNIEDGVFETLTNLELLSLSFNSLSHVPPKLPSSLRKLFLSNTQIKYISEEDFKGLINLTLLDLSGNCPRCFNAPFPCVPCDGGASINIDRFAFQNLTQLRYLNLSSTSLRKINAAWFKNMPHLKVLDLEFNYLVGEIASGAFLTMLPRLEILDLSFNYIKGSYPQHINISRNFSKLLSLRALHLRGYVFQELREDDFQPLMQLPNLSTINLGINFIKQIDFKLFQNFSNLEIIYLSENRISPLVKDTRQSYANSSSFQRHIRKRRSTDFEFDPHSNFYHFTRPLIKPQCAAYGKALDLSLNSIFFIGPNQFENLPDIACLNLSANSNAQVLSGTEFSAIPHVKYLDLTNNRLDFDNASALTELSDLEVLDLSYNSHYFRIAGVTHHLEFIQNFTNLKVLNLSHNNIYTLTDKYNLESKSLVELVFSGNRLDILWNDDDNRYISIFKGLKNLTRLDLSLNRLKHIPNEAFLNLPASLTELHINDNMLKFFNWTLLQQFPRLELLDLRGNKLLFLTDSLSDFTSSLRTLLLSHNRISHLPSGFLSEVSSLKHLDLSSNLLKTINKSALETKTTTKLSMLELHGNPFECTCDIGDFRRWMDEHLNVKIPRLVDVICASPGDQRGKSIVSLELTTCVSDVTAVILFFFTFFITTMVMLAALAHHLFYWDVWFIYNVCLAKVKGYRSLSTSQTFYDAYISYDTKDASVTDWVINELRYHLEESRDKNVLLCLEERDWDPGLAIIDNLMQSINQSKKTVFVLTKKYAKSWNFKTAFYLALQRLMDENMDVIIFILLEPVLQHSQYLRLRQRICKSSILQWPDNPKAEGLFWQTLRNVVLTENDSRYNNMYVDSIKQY
Summary of the method: as §1

human TLR9 = target: T3, human TLR9 (Homo sapiens, UniProt Q9NR96); experiment: TLR9 inhibition reporter assay (HEK-Blue cells, SEAP reporter, ODN2006 stimulation); conditions: HEK-Blue cells overexpressing human TLR9, SEAP reporter, ODN2006 5 nM
T3 construct: host or cells: HEK-Blue cells (HEK293-derived reporter line)
T3 sequence (Q9NR96 26-1032): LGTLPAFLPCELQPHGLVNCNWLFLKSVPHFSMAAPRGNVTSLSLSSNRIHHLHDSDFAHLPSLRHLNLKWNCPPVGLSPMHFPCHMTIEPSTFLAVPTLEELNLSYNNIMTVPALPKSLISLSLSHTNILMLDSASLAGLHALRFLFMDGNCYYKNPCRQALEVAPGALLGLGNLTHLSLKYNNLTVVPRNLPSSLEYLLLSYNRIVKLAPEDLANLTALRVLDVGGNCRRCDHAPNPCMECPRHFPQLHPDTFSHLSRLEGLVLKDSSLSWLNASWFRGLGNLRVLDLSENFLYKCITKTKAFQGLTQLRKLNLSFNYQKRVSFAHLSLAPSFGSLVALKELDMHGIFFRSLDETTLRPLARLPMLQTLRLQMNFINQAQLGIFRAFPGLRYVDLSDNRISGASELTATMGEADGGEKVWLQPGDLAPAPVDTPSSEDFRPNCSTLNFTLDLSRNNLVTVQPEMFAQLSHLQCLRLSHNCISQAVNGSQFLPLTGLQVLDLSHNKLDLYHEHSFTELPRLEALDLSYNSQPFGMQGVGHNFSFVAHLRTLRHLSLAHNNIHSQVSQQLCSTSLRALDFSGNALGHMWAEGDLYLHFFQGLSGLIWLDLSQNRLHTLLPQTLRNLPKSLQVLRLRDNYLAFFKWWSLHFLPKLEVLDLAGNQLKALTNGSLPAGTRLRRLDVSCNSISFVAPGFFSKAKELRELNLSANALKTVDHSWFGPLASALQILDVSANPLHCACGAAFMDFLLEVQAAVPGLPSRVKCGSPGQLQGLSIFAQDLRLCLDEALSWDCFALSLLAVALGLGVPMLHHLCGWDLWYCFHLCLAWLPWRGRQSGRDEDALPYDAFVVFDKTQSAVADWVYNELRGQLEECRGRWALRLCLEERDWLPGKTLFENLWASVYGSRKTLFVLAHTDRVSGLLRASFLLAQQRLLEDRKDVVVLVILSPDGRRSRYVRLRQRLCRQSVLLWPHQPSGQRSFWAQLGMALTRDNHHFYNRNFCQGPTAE
Summary of the method: as §1

Row | Structure (SMILES) | IC50 (human TLR7) | IC50 (human TLR8) | IC50 (human TLR9)
1 | CC(C)c1c(-c2ccnc3cnn(C)c23)[nH]c2ccc(C3CCNCC3)cc12 [Example 43, 7-(3-isopropyl-5-(piperidin-4-yl)-1H-indol-2-yl)-1-methyl-1H-pyrazolo[4,3-b]pyridine] | 100 to 1000 nM | < 100 nM | 1000 to 50000 nM
2 | CC(C)c1c(-c2cn(C)c3ncccc23)[nH]c2ccc(C3CCN(CC#N)CC3)cc12 [Example 958, 2-(4-(3-isopropyl-2-(1-methyl-1H-pyrrolo[2,3-b]pyridin-3-yl)-1H-indol-5-yl)piperidin-1-yl)acetonitrile] | < 100 nM | < 100 nM | 1000 to 50000 nM
3 | Cc1ccc(-c2[nH]c3ccc(C4CCN(C(=O)C[C@H](C)O)CC4)cc3c2C(C)C)c2ncnn12 [Example 599, (S)-3-hydroxy-1-(4-(3-isopropyl-2-(5-methyl-[1,2,4]triazolo[1,5-a]pyridin-8-yl)-1H-indol-5-yl)piperidin-1-yl)butan-1-one] | 100 to 1000 nM | 100 to 1000 nM | 1000 to 50000 nM
4 | Cc1cn2cc(-c3[nH]c4ccc(C5CCNCC5)cc4c3C(C)C)ccc2n1 [Example 115, 6-(3-isopropyl-5-(piperidin-4-yl)-1H-indol-2-yl)-2-methylimidazo[1,2-a]pyridine] | < 100 nM | 100 to 1000 nM | 100 to 1000 nM
5 | Cc1c(-c2ccnc3c2ccn3C)[nH]c2ccc(C3CCN(C4CCN(C(C)C)CC4)CC3)cc12 [Example 844, 4-(5-(1′-isopropyl-[1,4′-bipiperidin]-4-yl)-3-methyl-1H-indol-2-yl)-1-methyl-1H-pyrrolo[2,3-b]pyridine] | 1000 to 50000 nM | < 100 nM | < 100 nM
6 | Cc1cc(-c2[nH]c3ccc(C4CCN(C(=O)CCN(C)C5CC5)CC4)cc3c2C(C)C)cn2nnnc12 [Example 623, 3-(cyclopropyl(methyl)amino)-1-(4-(3-isopropyl-2-(8-methyltetrazolo[1,5-a]pyridin-6-yl)-1H-indol-5-yl)piperidin-1-yl)propan-1-one] | < 100 nM | < 100 nM | 1000 to 50000 nM
7 | Cc1cn2cc(-c3[nH]c4ccc(C5CCN(Cc6c[nH]cn6)CC5)cc4c3C(C)C)ccc2n1 [Example 936, 6-(5-(1-((1H-imidazol-4-yl)methyl)piperidin-4-yl)-3-isopropyl-1H-indol-2-yl)-2-methylimidazo[1,2-a]pyridine] | < 100 nM | 100 to 1000 nM | < 100 nM
8 | Cc1c(-c2nccc3[nH]cnc23)[nH]c2ccc(C3CCN(C4CCN(C(C)C)CC4)CC3)cc12 [Example 805, 4-(5-(1′-isopropyl-[1,4′-bipiperidin]-4-yl)-3-methyl-1H-indol-2-yl)-1H-imidazo[4,5-c]pyridine] | 1000 to 50000 nM | 1000 to 50000 nM | < 100 nM
9 | COc1cc(-c2[nH]c3ccc(C4CCNCC4)cc3c2C(C)C)cc2nc(C)cn12 [Example 162, 7-(3-isopropyl-5-(piperidin-4-yl)-1H-indol-2-yl)-5-methoxy-2-methylimidazo[1,2-a]pyridine] | < 100 nM | 100 to 1000 nM | 100 to 1000 nM
10 | CC(=O)N1CCC(c2ccc3[nH]c(-c4ccnc5[nH]ncc45)c(C(C)C)c3c2)CC1 [Example 592, 1-(4-(3-isopropyl-2-(1H-pyrazolo[3,4-b]pyridin-4-yl)-1H-indol-5-yl)piperidin-1-yl)ethan-1-one] | 100 to 1000 nM | 100 to 1000 nM | > 50000 nM
11 | CC(=O)N[C@H]1CCN(CC(=O)N2CCC(c3ccc4[nH]c(-c5ccnc6[nH]ncc56)c(C(C)C)c4c3)CC2)C1 [Example 581, (S)—N-(1-(2-(4-(3-isopropyl-2-(1H-pyrazolo[3,4-b]pyridin-4-yl)-1H-indol-5-yl)piperidin-1-yl)-2-oxoethyl)pyrrolidin-3-yl)acetamide] | < 100 nM | < 100 nM | 1000 to 50000 nM
12 | CC(C)c1c(-c2ccnc3[nH]ncc23)[nH]c2ccc(C3CCN(Cc4ccc(N5CCCC5)cc4)CC3)cc12 [Example 905, 4-(3-isopropyl-5-(1-(4-(pyrrolidin-1-yl)benzyl)piperidin-4-yl)-1H-indol-2-yl)-1H-5 pyrazolo[3,4-b]pyridine] | 100 to 1000 nM | < 100 nM | 1000 to 50000 nM
13 | CC(C)c1c(-c2cnc3[nH]ccc3c2)[nH]c2ccc(C3CCN(C4CCN(C)CC4)CC3)cc12 [Example 802, 5-(3-isopropyl-5-(1′-methyl-[1,4′-bipiperidin]-4-yl)-1H-indol-2-yl)-1H-pyrrolo[2,3-b]pyridine] | 100 to 1000 nM | 100 to 1000 nM | 100 to 1000 nM
14 | CC(C)c1c(-c2cn(C)c3ncccc23)[nH]c2ccc(C3CCN(Cc4cnn[nH]4)CC3)cc12 [Example 877, 3-(5-(1-((1H-1,2,3-triazol-5-yl)methyl)piperidin-4-yl)-3-isopropyl-1H-indol-2-yl)-1-methyl-1H-pyrrolo[2,3-b]pyridine] | < 100 nM | < 100 nM | 1000 to 50000 nM
